Test results from patent publication US11578097B2, “Tetrazole derivatives of bile acids as FXR/TGR5 agonists and methods of use thereof” (Enanta Pharmaceuticals, Inc., priority 2014, dated 2023).

Each compound was assayed against T1, human FXR (NR1H4) (Homo sapiens, UniProt Q96RI1) (assay: Human FXR (NR1H4) reporter assay (Gal4 promoter driven transactivation, luciferase)). Conditions: not given.
T1 construct: host or cells: CHO (Chinese hamster ovary) cells
T1 sequence (Q96RI1 1-486): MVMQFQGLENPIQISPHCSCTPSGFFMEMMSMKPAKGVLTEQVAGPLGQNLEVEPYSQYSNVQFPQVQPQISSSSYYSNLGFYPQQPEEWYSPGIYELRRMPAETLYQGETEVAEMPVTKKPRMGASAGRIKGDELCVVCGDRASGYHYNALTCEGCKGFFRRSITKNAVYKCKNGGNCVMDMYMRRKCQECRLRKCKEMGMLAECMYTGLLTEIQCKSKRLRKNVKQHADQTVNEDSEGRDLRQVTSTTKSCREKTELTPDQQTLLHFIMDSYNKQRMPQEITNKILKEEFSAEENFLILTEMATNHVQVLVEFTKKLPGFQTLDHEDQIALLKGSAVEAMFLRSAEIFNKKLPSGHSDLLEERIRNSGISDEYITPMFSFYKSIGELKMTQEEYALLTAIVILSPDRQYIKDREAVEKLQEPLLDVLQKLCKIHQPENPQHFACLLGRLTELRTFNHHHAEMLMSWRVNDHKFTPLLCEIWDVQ
Format: cell-based
Excerpt: Assays Human FXR (NR1H4) Assay Determination of a ligand mediated Gal4 promoter driven transactivation to quantify ligand binding mediated activation of FXR. FXR Reporter Assay kit purchased from Indigo Bioscience (Catalogue number: IB00601) to determine the potency and efficacy of compound developed by Enanta that can induce FXR activation. The principal application of this reporter assay system is to quantify functional activity of human FXR. The assay utilizes non-human mammalian cells, CHO (Chinese hamster ovary) cells engineered to express human NR1H4 protein (referred to as FXR). Reporter cells also incorporate the cDNA encoding beetle luciferase which catalyzes the substrates and yields photon emission. Luminescence intensity of the reaction is quantified using a plate-reading luminometer, Envision. Reporter Cells include the luciferase reporter gene functionally linked to an FXR responsive promoter. Thus, quantifying changes in luciferase expression in the treated reporter cells provides a sensitive surrogate measure of the changes in FXR activity. […] The assay is according to the manufacturer's instructions. In brief, the assay was performed in white, 96 well plates using final volume of 100 ul containing cells with different doses of compounds. Retrieve Reporter Cells from −80° C. storage. Perform a rapid thaw of the frozen cells by transferring a 10 ml volume of 37° C. cell recovery medium into the tube of frozen cells. Recap the tube of Reporter Cells and immediately place it in a 37° C. water bath for 5-10 minutes. Retrieve the tube of Reporter Cell Suspension from the water bath. Sanitize the outside surface of the tube with a 70% alcohol swab, and then transfer it into the cell culture hood. Dispense 90 μl of cell suspension into each well of the 96-well Assay Plate. Transfer the plate into 37° C. incubator, allowing the cells adherent to the bottom of the well. Dilute compounds in Dilution Plate (DP), and administrate to cells at Assay Plate (AP). DMSO content of the samples was kept at 0.2%. Cells were incubated for additional 22 hours before luciferase activities were measured. Thirty minutes before intending to quantify FXR activity, remove Detection Substrate and Detection Buffer from the refrigerator and place them in a low-light area so that they may equilibrate to room temperature. Remove the plate's lid and discard all media contents by ejecting it into an appropriate waste container. Gently tap the inverted plate onto a clean absorbent paper towel to remove residual droplets. Cells will remain tightly adhered to well bottoms. Add 100 μl of luciferase detection reagent to each well of the assay plate. Allow the assay plate to rest at room temperature for at least 5 minutes following the addition of LDR. Set the instrument (Envision) to perform a single 5 second “plate shake” prior to reading the first assay well. Read time may be 0.5 second (500 mSec) per well.

Row | Compound | EC50
1 | CC[C@H]1[C@@H](O)[C@@H]2[C@H](CC[C@]3(C)[C@@H]([C@H](C)CCCCc4nn[nH]n4)CC[C@@H]23)[C@@]2(C)CC[C@@H](O)C[C@@H]12 [Example 4] | 100 to 1000 nM
2 | CC[C@H]1[C@@H](O)[C@@H]2[C@H](CC[C@]3(C)[C@@H]([C@H](C)CCCCCc4nn[nH]n4)CC[C@@H]23)[C@@]2(C)CC[C@@H](O)C[C@@H]12 [Example 5] | 100 to 1000 nM
3 | CC[C@H]1[C@@H](O)[C@@H]2[C@H](CC[C@]3(C)[C@@H]([C@H](C)CCCc4nnn[nH]4)CC[C@@H]23)[C@@]2(C)CC[C@@H](O)C[C@@H]12 [Example 2] | 100 to 1000 nM
4 | CC[C@H]1[C@@H](O)[C@@H]2[C@H](CC[C@]3(C)[C@@H]([C@H](C)Cc4nnn[nH]4)CC[C@@H]23)[C@@]2(C)CC[C@@H](O)C[C@@H]12 [Example 3] | 1000 to 10000 nM
5 | CC[C@H]1[C@@H](O)[C@@H]2[C@H](CC[C@]3(C)[C@@H]([C@H](C)CCc4nnn[nH]4)CC[C@@H]23)[C@@]2(C)CC[C@@H](O)C[C@@H]12 [Example 1] | 1000 to 10000 nM
6 | CC[C@H]1[C@@H](O)[C@@H]2[C@H](CC[C@]3(C)[C@@H]([C@H](C)CCC(=O)Nc4nnn[nH]4)CC[C@@H]23)[C@@]2(C)CC[C@@H](O)C[C@@H]12 [Example 6] | 1000 to 10000 nM

Same assay, conditions: normalized to CDCA set as 100%

Row | Compound | Efficacy (%)
7 | CC[C@H]1[C@@H](O)[C@@H]2[C@H](CC[C@]3(C)[C@@H]([C@H](C)CCCCc4nn[nH]n4)CC[C@@H]23)[C@@]2(C)CC[C@@H](O)C[C@@H]12 [Example 4] | 234%
8 | CC[C@H]1[C@@H](O)[C@@H]2[C@H](CC[C@]3(C)[C@@H]([C@H](C)CCCCCc4nn[nH]n4)CC[C@@H]23)[C@@]2(C)CC[C@@H](O)C[C@@H]12 [Example 5] | 191%
9 | CC[C@H]1[C@@H](O)[C@@H]2[C@H](CC[C@]3(C)[C@@H]([C@H](C)CCCc4nnn[nH]4)CC[C@@H]23)[C@@]2(C)CC[C@@H](O)C[C@@H]12 [Example 2] | 354%
10 | CC[C@H]1[C@@H](O)[C@@H]2[C@H](CC[C@]3(C)[C@@H]([C@H](C)Cc4nnn[nH]4)CC[C@@H]23)[C@@]2(C)CC[C@@H](O)C[C@@H]12 [Example 3] | 192%
11 | CC[C@H]1[C@@H](O)[C@@H]2[C@H](CC[C@]3(C)[C@@H]([C@H](C)CCc4nnn[nH]4)CC[C@@H]23)[C@@]2(C)CC[C@@H](O)C[C@@H]12 [Example 1] | 397%
12 | CC[C@H]1[C@@H](O)[C@@H]2[C@H](CC[C@]3(C)[C@@H]([C@H](C)CCC(=O)Nc4nnn[nH]4)CC[C@@H]23)[C@@]2(C)CC[C@@H](O)C[C@@H]12 [Example 6] | 105%
